Assay results taken from ChEMBL document CHEMBL3988442, “University of Dundee, Small-Polar-MMV Screening Library” (2021).

Molecular target: Lysine--tRNA ligase (Plasmodium falciparum (isolate 3D7), UniProt Q8IDJ8)
Assay: Pf-KRS-1 (Lysyl-RNA Synthetase-1, KRS-1, cytosolic KRS) from Plasmodium falciparum. Inhibitor assay, 384 well plate, luminescence read.
Format: functional

Lysine--tRNA ligase, sequence (Q8IDJ8 whole entry): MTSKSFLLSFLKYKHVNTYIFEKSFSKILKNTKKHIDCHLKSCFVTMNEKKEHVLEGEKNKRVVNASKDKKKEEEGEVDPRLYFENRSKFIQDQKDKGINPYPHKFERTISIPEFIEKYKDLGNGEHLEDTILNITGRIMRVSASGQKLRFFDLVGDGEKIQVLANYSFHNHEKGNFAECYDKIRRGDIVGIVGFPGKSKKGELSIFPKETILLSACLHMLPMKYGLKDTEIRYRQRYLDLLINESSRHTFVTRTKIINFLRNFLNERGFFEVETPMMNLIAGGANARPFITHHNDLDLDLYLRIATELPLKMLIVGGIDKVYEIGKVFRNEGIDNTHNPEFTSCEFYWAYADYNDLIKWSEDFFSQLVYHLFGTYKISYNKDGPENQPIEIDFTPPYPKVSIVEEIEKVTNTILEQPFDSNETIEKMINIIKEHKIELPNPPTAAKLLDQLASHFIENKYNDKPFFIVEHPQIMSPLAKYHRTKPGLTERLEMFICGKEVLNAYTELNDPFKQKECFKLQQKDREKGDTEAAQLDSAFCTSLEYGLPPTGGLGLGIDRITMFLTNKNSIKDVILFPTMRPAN

SMILES	IC50 [µM]
CCCn1ccnc1CN1CCC(Oc2ccc(Cl)cc2)(C(=O)O)CC1	> 50.1
CN(C)CCNC(=O)c1ccc(S(=O)(=O)N[C@@H]2CCNC2)cc1	> 50.1
Cc1ccc(C)c2c(O)cc(CN[C@H]3CCCCNC3=O)nc12	> 50.1
C/C=C(\C)CN1C[C@H](NC(=O)CCOC)[C@@H](c2ccc(C)o2)C1	> 50.1
Cc1nc(CN2CCC3(CCCO3)CC2)c2ccccn12	> 50.1
O=C(O)c1cc(-c2cc[nH]n2)cc(S(=O)(=O)N2CCCCCC2)c1	> 50.1
COc1nccnc1N1CCC2(CC1)[C@H](O)C[C@@H]2OCCN(C)C	> 50.1
Cc1nc(CCC(=O)N2Cc3cnc(-c4ccccc4)nc3C2)n[nH]1	> 50.1
O=C(O)c1cc(-c2ccncc2F)cc(S(=O)(=O)N2CCCCCC2)c1	> 50.1
CCN1CCC(N2CCN(c3cc(-c4nc(C)no4)ccn3)CC2)CC1	> 50.1
Cc1nc(N(C)CCCc2nccn2C)c2nc(C)oc2n1	> 50.1
CCC[C@@H]1CN(Cc2nnc(-c3cccc(F)c3)o2)C[C@H]1NC(C)=O	> 50.1
COc1c(F)ccc(C(=O)N2CC[C@H](CO)[C@@H](O)C2)c1F	> 50.1
Cc1cc(C2CCC2)nc(N2CCC3(CC2)OCCCC3O)n1 (stereo unspecified)	> 50.1
CN1CC(c2ccccc2)CC12CCN(C(=O)c1cccnc1)CC2 (stereo unspecified)	> 50.1
NC(=O)c1ccc(CN2C(=O)C3(CCNCC3)Nc3ccccc32)cc1	> 50.1
Cc1cc(C)c2c(NCC3(O)CCCCC3)ncnc2n1	> 50.1
CC(=O)c1cc(CC(=O)N2CCN(S(=O)(=O)c3ccccc3)CC2)cs1	> 50.1
CCCc1ccc(CN2CCN(C(=O)C(C)C)[C@@H]3CS(=O)(=O)C[C@@H]32)o1	> 50.1
c1ccc(CCN2CCCC(Cn3ccnc3)C2)cc1 (stereo unspecified)	> 50.1
O=c1c(CN2CCOCC2)coc2ccc(Cl)cc12	> 50.1

SMILES	IC50 [µM]
O=c1c(CN2CCCCC2)coc2ccc(Cl)cc12	> 50.1
CCCc1ccc(CN2CCN(c3ncccn3)[C@@H]3CS(=O)(=O)C[C@@H]32)o1	> 50.1
Cc1ccc(C2(O)CCN(Cc3nc(C)n4ccccc34)CC2)nc1	> 50.1
COCCC(=O)N1CCC2(CC1)CC(c1ccccc1)CN(C1CC1)C2 (stereo unspecified)	> 50.1
CCN1CC(C(=O)N2CCN(CCn3cccc3)CC2)CC1=O (stereo unspecified)	> 50.1
Cc1cc(C)c2nc(CNC3CCNC3=O)cc(O)c2c1 (stereo unspecified)	> 50.1
COc1cc(OC)nc(N2CCC3(CC2)OCCCC3O)n1 (stereo unspecified)	> 50.1
Cc1cc(C)c2nc(CNC3CCCNC3=O)cc(O)c2c1 (stereo unspecified)	> 50.1
Cc1ccnc(NCCNC(=O)C2CC3(CCNCC3)CN2C)c1 (stereo unspecified)	> 50.1
COc1cc(C2CC(=O)Nc3c2nc2n3CCCC2)cc(OC)c1O (stereo unspecified)	> 50.1
Cc1cccc2c1nc(CCO)n2-c1ccc(N)nc1	> 50.1
CC(C)C1CN(C(=O)c2cc(=O)[nH]c(=O)[nH]2)CCCN1CC1CC1 (stereo unspecified)	> 50.1
Cc1nnc(CN2CCCC(CCc3ccccc3C(F)(F)F)C2)o1 (stereo unspecified)	> 50.1
CSCCC(O)C(=O)N1CCCN(Cc2cccnc2)CC1 (stereo unspecified)	> 50.1
CSc1cccc(CN(C)C(=O)Nc2nc(C)n(C)n2)c1	> 50.1
c1cc(-c2cn[nH]c2)ncc1CN1CCCCC1	> 50.1
CCc1ccc(CN2CCN(C(=O)C(C)C)[C@@H]3CS(=O)(=O)C[C@@H]32)cc1	> 50.1
COC(=O)c1ccc2ccn(CC3CCCCO3)c(=O)c2c1 (stereo unspecified)	38.2
Cc1cc2ccccc2n1CCC(=O)N1CCC[C@H]1C(N)=O	> 50.1
O=C(C(O)c1ccccc1Cl)N1CCCN(Cc2cccnc2)CC1 (stereo unspecified)	> 50.1
CN(C)CCO[C@H]1C[C@@H](O)C12CCN(c1nccc3ccccc13)CC2	> 50.1

SMILES	IC50 [µM]
FC(F)(F)CCc1ccnc(NC2CCOC2)n1 (stereo unspecified)	> 50.1
c1csc(CN2CCCN(c3ncnc4[nH]ccc34)CC2)c1	> 50.1
Cc1ccc(CS(=O)(=O)NCc2ccco2)cc1	> 50.1
Cc1cc(C)c2nc(CN[C@H]3CCCNC3)cc(O)c2c1	> 50.1
Cc1ccc(CN2CCN(Cc3ccncc3)[C@@H]3CS(=O)(=O)C[C@@H]32)cc1	> 50.1
Cc1nc[nH]c1CN1CCn2nc(CN3CC[C@H](F)C3)cc2C1	> 50.1
CN(C)CCn1ccnc1C1CCN(c2cc(N)nc(N)n2)CC1	> 50.1
CN(C)C(=O)N1C[C@@H]2CC[C@H](C1)N(C/C=C/c1ccc(F)cc1)C2	> 50.1
NC(=O)c1csc(N2CCCC(c3n[nH]c(=O)n3-c3ccccc3)C2)n1 (stereo unspecified)	> 50.1
CSCCCN1CCCC(Cn2ccnc2)C1 (stereo unspecified)	> 50.1
CCc1cc2cc(OC)c(OC)cc2nc1SCCN1CCCCC1	> 50.1
CCc1c(C)[nH]c(C(C)(N)CC)nc1=O (stereo unspecified)	> 50.1
COc1cc(CNC(C)Cn2ccnc2)cc2c1OCO2 (stereo unspecified)	> 50.1
COc1cc(CNCCn2ccnc2)cc2c1OCO2	> 50.1
CNC(=O)c1ccc2c(c1)C1(CCN(CC(C)C)CC1)C(=O)N2	> 50.1
O=C([C@@H]1C[C@H]2[C@H](CCN2Cc2nccs2)O1)N1CCOCC1	> 50.1
CN1[C@H](Cn2cncn2)C[C@@H]2CN(Cc3cccc(C#N)c3)CC[C@@H]21	> 50.1
O=C(Nc1cccnc1)[C@H]1C[C@@H]2CCN(c3nncs3)C[C@H]2O1	> 50.1
Cc1noc(C)c1CN1CC[C@H]2[C@H]1CCN2CC1CCOCC1	> 50.1
